Measured values: patent publication KR20130112248A, “피라졸로피리미딘 유도체 화합물, 이를 포함하는 산화질소 생성 억제용 조성물 및 뇌신경 질환 예방 및 치료용 약학적 조성물” (한국과학기술연구원, priority 2012, dated 2013)

System: NO production in BV-2 cells [NO 생성; BV-2 세포]
Test: Nitric oxide (NO) quantification (nitrite, Griess reaction) in LPS-activated BV-2 cells
Format: cell-based
Settings: LPS 0.2 ㎍/mL, 24 h co-treatment, nitrite by Griess at 540 nm; for activity at 20 µM / activity at 30 µM: Mus musculus, BV-2, 24 h

Molecule | activity at 20 µM (20 μM) [%] | further results
CSc1nc(Cl)c2cnn(C)c2n1 [5a, 1-메틸-4-클롤로-6-(메틸티오)피라졸로[3,4-d]피리미딘] | 51 ± 2 | 
CSc1nc(NCc2ccc(Cl)cc2)c2cnn(C)c2n1 [화합물 12m, 1-메틸-4-(4-클로로벤질)아미노-6-(메틸티오)피라졸로[3,4-d]피리미딘] | 53 ± 6 | 
COc1cccc(CCn2ncc3c(NCc4ccccc4C)nc(S(C)(=O)=O)nc32)c1 [화합물 22m, N-(2-메틸벤질)-1-(3-메톡시펜에틸)-6-(메틸설포닐)-1H-피라졸로[3,4-d]피리미딘-4-아민] | 62 ± 2.8 | 
COc1ccc(CNc2nc(SC)nc3c2cnn3Cc2ccccc2)cc1 [화합물 16g, 1-벤질-4-(4-메톡시벤질)아미노-6-(메틸티오)피라졸로[3,4-d]피리미딘] | 37 ± 6 | 
CSc1nc(NCCc2ccccc2)c2cnn(Cc3ccccc3)c2n1 [화합물 16d, 1-벤질-4-(2-페닐에틸)아미노-6-(메틸티오)피라졸로[3,4-d]피리미딘] | 54 ± 1 | 
CCCCNc1nc([S+](C)[O-])nc2c1cnn2-c1ccccc1 (stereo not shown) [화합물 22d, N-뷰틸-6-(메틸설파이닐)-1-페닐-1H-피라졸로[3,4-d]피리미딘-4-아민] | 46 ± 8.3 | 
CSc1nc(NCc2ccc(Cl)cc2)c2cnn(-c3ccccc3)c2n1 [화합물 15n, 1-페닐-4-(4-클로로벤질)아미노-6-(메틸티오)피라졸로[3,4-d]피리미딘] | 63 ± 6 | 
COc1cccc(CNc2nc(SC)nc3c2cnn3-c2ccc(C)cc2)c1 [화합물 21d, N-(3-메톡시벤질)-6-(메틸티오)-1-p-톨릴-1H-피라졸로[3,4-d]피리미딘-4-아민] | 42 ± 5.2 | 
CSc1nc(NCc2ccccn2)c2cnn(Cc3ccccc3)c2n1 [화합물 16zh, 1-벤질-6-(메틸티오)-N-((피리딘-2-일)메틸)-1H-피라졸로[3,4-d]피리미딘-4-아민] | 53 ± 7.2 | 
C=CCn1ncc2c(NCCCC)nc(SC)nc21 [화합물 13l, 1-알릴-N-뷰틸-6-(메틸티오)-1H-피라졸로[3,4-d]피리미딘-4-아민] | 43.3 ± 1.1 | 
CSc1nc(NCc2ccc(C)cc2)c2cn[nH]c2n1 [6q, 4-(4-메틸벤질)아미노-6-(메틸티오)피라졸로[3,4-d]피리미딘] | 90 ± 15 | 
CSc1nc(NCc2ccccn2)c2cnn(CCNC(=O)OC(C)(C)C)c2n1 [화합물 14k, 2-(4-((피리딘-2-일)메틸아미노)-6-(메틸티오)-1H-피라졸로[3,4-d]피리미딘-1-일)에틸카바메이트] | 61 ± 0.8 | 
COc1ccccc1CNc1nc([S+](C)[O-])nc2c1cnn2-c1ccc(C)cc1 (stereo not shown) [화합물 22g, N-(2-메톡시벤질)-6-(메틸설파이닐)-1-p-톨릴-1H-피라졸로[3,4-d]피리미딘-4-아민] | 42 ± 2.3 | 
COc1ccc(CNc2nc(SC)nc3c2cnn3-c2ccc(C)cc2)cc1 [화합물 21e, N-(4-메톡시벤질)-6-(메틸티오)-1-p-톨릴-1H-피라졸로[3,4-d]피리미딘-4-아민] | 39 ± 3 | 
COc1ccc([C@H](C)Nc2nc(S(C)(=O)=O)nc3c2cnn3Cc2ccccc2)cc1 [화합물 23v, 1-벤질-N-((S)-1-(4-메톡시페닐)에틸)-6-(메틸설포닐)-1H-피라졸로[3,4-d]피리미딘-4-아민] | 59 ± 3 | 
CSc1nc(NCc2ccccc2C)c2cnn(CCO)c2n1 [화합물 27g, 2-(4-(2-메틸벤질아미노)-6-(메틸티오)-1H-피라졸로[3,4-d]피리미딘-1-일)에탄올] | 82 ± 2.5 | 
CSc1nc(NCc2ccccc2Cl)c2cnn(-c3ccc(F)cc3)c2n1 [화합물 20a, N-(2-클로로벤질)-1-(4-플루오로페닐)-6-(메틸티오)-1H-피라졸로[3,4-d]피리미딘-4-아민] | 48 ± 17.2 | 
CC(Nc1nc(NCCO)nc2c1cnn2Cc1ccccc1)c1ccccc1 (stereo not shown) [화합물 24a, 2-(4-(1-페닐에틸아미노)-1-벤질-1H-피라졸로[3,4-d]피리미딘-6-일아미노)에탄올] | 78 ± 1.4 | 
CSc1nc(NC2CCCCC2)c2cn[nH]c2n1 [6t, 4-사이클로헥실아미노-6-(메틸티오)피라졸로[3,4-d]피리미딘] | 106 ± 5 | 

Molecule | activity at 20 µM (20 μM) [%] | further results
CSc1nc2c(cnn2-c2ccccc2)c(=S)[nH]1 [9b, 1-페닐-6-(메틸티오)피라졸로[3,4-d]피리미딘-4-티온] | 94 ± 7 | 
CSc1nc(Cl)c2cnn(-c3ccc(F)cc3)c2n1 [5h, 1-(4-플루오로페닐)-4-클로로-6-(메틸티오)피라졸로[3,4-d]피리미딘] | 9 ± 42.2 | activity at 30 µM: 59.6%
C=CCn1ncc2c(NCc3ccc(C)cc3)nc(SC)nc21 [화합물 13g, N-(4-메틸벤질)-1-알릴-6-(메틸티오)-1H-피라졸로[3,4-d]피리미딘-4-아민] | 12.2 ± 3.8 | 
CSc1nc(NCc2ccccc2C)c2cnn(C)c2n1 [화합물 12l, 1-메틸-4-(2-메틸벤질)아미노-6-(메틸티오)피라졸로[3,4-d]피리미딘] | 69 | 
CSc1nc(NCCN2CCCCC2)c2cn[nH]c2n1 [6g, 4-(2-피페리딘-1-일)에틸아미노-6-(메틸티오)피라졸로[3,4-d]피리미딘] | 102 ± 6 | 
CSc1nc(NCCc2ccccc2)c2cnn(C)c2n1 [12g, 1-메틸-4-(2-페닐에틸)아미노-6-(메틸티오)피라졸로[3,4-d]피리미딘] | 92 ± 1 | 
COc1cccc(CNc2nc(SC)nc3c2cnn3-c2ccc(F)cc2)c1 [화합물 20d, N-(3-메톡시벤질)-1-(4-플루오로페닐)-6-(메틸티오)-1H-피라졸로[3,4-d]피리미딘-4-아민] | 43 ± 5.9 | 
COc1cccc(CCn2ncc3c(NCc4ccccc4OC)nc(SC)nc32)c1 [화합물 18b, N-(2-메톡시벤질)-1-(3-메톡시펜에틸)-6-(메틸티오)-1H-피라졸로[3,4-d]피리미딘-4-아민] | 37 ± 17.6 | 
C[S+]([O-])c1nc(NCc2ccccc2Cl)c2cnn(-c3ccccc3)c2n1 (stereo not shown) [화합물 22a, N-(2-클로로벤질)-6-(메틸설파이닐)-1-페닐-1H-피라졸로[3,4-d]피리미딘-4-아민] | 24 ± 12.9 | 
C=CCn1ncc2c(NC(C)c3ccccc3)nc(SC)nc21 (stereo not shown) [화합물 13i, 1-알릴-6-(메틸티오)-N-(1-페닐에틸)-1H-피라졸로[3,4-d]피리미딘-4-아민] | 9.5 ± 3.8 | 
CSc1nc(Cl)c2cnn(-c3ccc(C)cc3)c2n1 [5i, 1-(4-메틸페닐)-4-클로로-6-(메틸티오)피라졸로[3,4-d]피리미딘] | 54 ± 2.7 | 
CSc1nc(NCc2ccc(F)cc2)c2cnn(C(C)(C)C)c2n1 [화합물 17c, 1-t-뷰틸-4-(4-플루오로벤질)아미노-6-(메틸티오)피라졸로[3,4-d]피리미딘] | 59 ± 2 | 
COc1ccc([C@H](C)Nc2nc(SC)nc3c2cnn3-c2ccccc2)cc1 [화합물 15zc, N-((S)-1-(4-메톡시페닐)에틸)-6-(메틸티오))-1-페닐-1H-피라졸로[3,4-d]피리미딘-4-아민] | 42 ± 0.9 | 
CSc1nc2[nH]ncc2c(=S)[nH]1 [9a, 6-(메틸티오)피라졸로[3,4-d]피리미딘-4-티온] |  | activity at 30 µM: 98 ± 5.5%
CSc1nc(N(CCO)CCO)c2cnn(-c3ccccc3)c2n1 [화합물 15i, 1-페닐-4-비스(1-하이드록시에틸)아미노-6-(메틸티오)피라졸로[3,4-d]피리미딘] | 90 ± 3 | 
COc1cccc(CCn2ncc3c(NCc4ccccc4OC)nc(S(C)(=O)=O)nc32)c1 [화합물 23x, N-(2-메톡시벤질)-1-(3-메톡시펜에틸)-6-(메틸설포닐)-1H-피라졸로[3,4-d]피리미딘-4-아민] | 35 ± 4.3 | 
C=CCNc1nc(SC)nc2c1cnn2C(C)(C)C [화합물 17f, 1-t-뷰틸-4-알릴아미노-6-(메틸티오)피라졸로[3,4-d]피리미딘] | 89 ± 8 | 
CSc1nc(NCc2ccc(F)cc2)c2cnn(Cc3ccccc3)c2n1 [화합물 16c, 1-벤질-4-(4-플루오로벤질)아미노-6-(메틸티오)피라졸로[3,4-d]피리미딘] | 32.3 ± 3 | 
C=CCNc1nc(SC)nc2c1cnn2CCO [화합물 27c, 1-(1-하이드록시에틸)-4-알릴아미노-6-(메틸티오)피라졸로[3,4-d]피리미딘] | 98 ± 6 | 

Molecule | activity at 20 µM (20 μM) [%] | further results
CSc1nc(NCc2ccccc2Cl)c2cnn(Cc3ccccc3)c2n1 [화합물 16zi, N-(2-클로로벤질)-1-벤질-6-(메틸티오)-1H-피라졸로[3,4-d]피리미딘-4-아민] | 39 ± 3.1 | 
CSc1nc(NC(C)(C)CO)c2cnn(CCNC(=O)OC(C)(C)C)c2n1 [화합물 14h, 2-(4-(1-하이드록시-2-메틸프로판-2-일아미노)-6-(메틸티오)-1H-피라졸로[3,4-d]피리미딘-1-일)에틸카바메이트] | 78.9 ± 1.6 | 
N-(2-클로로벤질)-6-(메틸설파이닐)-1-페닐-1H-피라졸로[3,4-d]피리미딘-4-아민 [화합물 22f] |  | NO (% of LPS) (20 μM): 58±3.7 % of LPS
CSc1nc(Sc2c(Cl)cccc2Cl)c2cnn(Cc3ccccc3)c2n1 [화합물 16t, 4-(2,6-다이클로로페닐티오)-1-벤질-6-(메틸티오)-1H-피라졸로[3,4-d]피리미딘] | 43 ± 1.2 | 
CSc1nc(NCc2ccc(F)cc2)c2c(-c3ccccc3)nn(Cc3ccccc3)c2n1 [32c, 1-벤질-3-페닐-4-(4-플루오로벤질)아미노-6-(메틸티오)피라졸로[3,4-d]피리미딘] | 69 ± 8 | 
CSc1nc(Cl)c2c(-c3ccccc3)nn(Cc3ccccc3)c2n1 [화합물 30b, 1-벤질-3-페닐-4-클로로-6-(메틸티오)피라졸로[3,4-d]피리미딘] | 31 ± 19 | 
CSc1nc(NC(C)C2CCCCC2)c2cn[nH]c2n1 (stereo not shown) [6j, 4-(1-사이클로헥실에틸)아미노-6-(메틸티오)피라졸로[3,4-d]피리미딘] | 66 ± 10 | 
CSc1nc(N2CCCCC2)c2cnn(-c3ccccc3)c2n1 [화합물 15m, 1-페닐-4-피페리디노-6-(메틸티오)피라졸로[3,4-d]피리미딘] | 92 ± 4 | 
COc1ccccc1CNc1nc(SC)nc2c1cnn2C [화합물 12j, 1-메틸-4-(2-메톡시벤질)아미노-6-(메틸티오)피라졸로[3,4-d]피리미딘] | 40 ± 5 | 
CSc1nc(NCCCn2ccnc2)c2cnn(C)c2n1 [12d, 1-메틸-4-[3-(이미다졸-1-일)]프로필아미노-6-(메틸티오)피라졸로[3,4-d]피리미딘] | 75 ± 1 | 
CSc1nc(N(CCO)CCO)c2cn[nH]c2n1 [6o, 4-(디-2-하이드로에틸)아미노-6-(메틸티오)피라졸로[3,4-d]피리미딘] | 106 ± 10 | 
CSc1nc(N[C@H](C)c2ccccc2)c2cnn(Cc3ccccc3)c2n1 [화합물 16e, (R)-1-벤질-4-(1-페닐에틸)아미노-6-(메틸티오)피라졸로[3,4-d]피리미딘] | 36 ± 4 | 
CSc1nc(NCc2ccccc2)c2cnn(C)c2n1 [12a, 1-메틸-4-벤질아미노-6-(메틸티오)피라졸로[3,4-d]피리미딘] | 77 ± 2 | 
COc1cccc(CNc2nc(SC)nc3[nH]ncc23)c1 [6i, 4-(3-메톡시벤질)아미노-6-(메틸티오)피라졸로[3,4-d]피리미딘] | 48 ± 10 | 
C=CCn1ncc2c(NCc3ccc(F)cc3)nc(SC)nc21 [화합물 13d, 1-알릴-4-(4-플루오로벤질)아미노-6-(메틸티오)피라졸로[3,4-d]피리미딘] | 14 ± 39 | 
CSc1nc(NC(C)C2CCCCC2)c2cnn(-c3ccccc3)c2n1 (stereo not shown) [화합물 15za, N-(1-사이클로헥실에틸)-6-(메틸티오)-1-페닐-1H-피라졸로[3,4-d]피리미딘-4-아민] | 36 ± 0.7 | 
COc1cccc(CNc2nc(S(C)(=O)=O)nc3c2cnn3CCc2ccccc2OC)c1 [화합물 23z, 1-(2-메톡시펜에틸)-N-(3-메톡시벤질)-6-(메틸설포닐)-1H-피라졸로[3,4-d]피리미딘-4-아민] | 51 ± 3.5 | 
C=CCn1ncc2c(NCCO)nc(SC)nc21 [화합물 13c, 1-알릴-4-(1-하이드록시에틸)아미노-6-(메틸티오)피라졸로[3,4-d]피리미딘] | 77 ± 7 | 
COc1ccc(CNc2nc(SC)nc3c2cnn3C(C)(C)C)cc1 [화합물 17e, 1-t-뷰틸-4-(4-메톡시벤질)아미노-6-(메틸티오)피라졸로[3,4-d]피리미딘] | 21 ± 27 | 
